Like-named read-outs stand apart in the source and are kept apart here. Where a SMILES comes first, the peptide text is derived from it. [ ]: non-standard residue; d: D form. pGlu = O=C1CC[C@@H](C(=O)O)N1
Tests used:
[1] = Plasma concentrations of Nexvax2 peptides (UHPLC-MS/MS), pre-treatment and 45 minutes post-treatment; format: in vivo, human; details: 45 minutes after treatment at levels above 300 μg; almost all participants; LLOQ 2 ng/mL
Method: • Weekly Gastrointestinal Symptom Rating Scale (GSRS) scores, and relative change in plasma cytokine levels 4 hours after 150 microgram and higher doses. Plasma concentrations pre- and 45 min post-dose, and villous height to crypt depth ratio (VH:CrD) in 2nd part duodenal biopsies were assessed in Cohort 3.
Pharmacodynamics assessments included a 38plex assay to profile cytokine and chemokine concentrations in plasma before and up to 10 hours post-treatment at visits corresponding to administration of Nexvax2 at the previously determined maximum tolerated dose (150 μg) and at each of the higher dose levels. The percentage of leukocytes in whole blood that corresponded to T cells or helper, cytotoxic, regulatory, or activated (CCR6-positive) T cell subsets was estimated using epigenetic cell counting before and after dosing during the treatment period at times indicated. Pharmacokinetics of the three constituent peptides in Nexvax2 were assessed pre-treatment and 45 minutes post-treatment in cohort 3 at visits corresponding to dose levels 300 μg and above. Serum levels of anti-Nexvax2 antibodies were also assessed in cohort 3 at times shown. A four-week observational period followed the end of treatment visit.
Pharmacokinetics of Nexvax2 peptides was summarised by dose level and presented as mean (95% CI) plasma concentrations; correlation coefficients were used to compare the plasma concentrations of the Nexvax2 peptides. […] Data from cohorts 1 and 2 were analysed separately according to the Nexvax2 starting dose levels of 3 μg or 30 μg. […]
Blood was collected 30 minutes before and 45 minutes after study drug administration. […] Charles River Laboratories Ashland, LLC (Ashland, Ohio, USA) measured the concentrations of NPL001, NPL002, and NPL003. […] Reconstituted sample extracts were analysed with a UHPLC-MS/MS assay using a Waters Acquity® UPLC Peptide BEH C18 Column, 300 Å, 1.7-μm particle-size, 2.1×50 mm column (Waters Corporation, Milford, Mass., USA). […]

[2] = Solubility in normal saline at pH 7
[3] = pH 7

SMILES | Plasma concentration versus limit of quantification [1] | solubility [2] [mg/mL] | solubility [3] [mg/mL]
NC(=O)CC[C@H](NC(=O)[C@H](Cc1c[nH]c2ccccc12)NC(=O)[C@@H]1CCCN1C(=O)[C@H](Cc1ccccc1)NC(=O)[C@@H]1CCCN1C(=O)[C@H](CCC(N)=O)NC(=O)[C@H](CCC(=O)O)NC(=O)[C@@H]1CCCN1C(=O)[C@H](CCC(N)=O)NC(=O)[C@@H]1CCCN1C(=O)[C@H](Cc1ccccc1)NC(=O)[C@@H]1CCCN1C(=O)[C@H](CCC(N)=O)NC(=O)[C@@H]1CCC(=O)N1)C(=O)N1CCC[C@H]1C(N)=O [NPL002, (pE)QPFPQPEQPFPWQP-NH2] ([pGlu]QPFPQPEQPFPWQP-NH2) | above the limit of quantification | ≤ 25 | 
CC(C)C[C@H](NC(=O)[C@@H]1CCC(=O)N1)C(=O)N[C@@H](CCC(N)=O)C(=O)N1CCC[C@H]1C(=O)N[C@@H](Cc1ccccc1)C(=O)N1CCC[C@H]1C(=O)N[C@@H](CCC(N)=O)C(=O)N1CCC[C@H]1C(=O)N[C@@H](CCC(=O)O)C(=O)N[C@@H](CC(C)C)C(=O)N1CCC[C@H]1C(=O)N[C@@H](Cc1ccc(O)cc1)C(=O)N1CCC[C@H]1C(=O)N[C@@H](CCC(N)=O)C(=O)N1CCC[C@H]1C(=O)N[C@@H](CCC(N)=O)C(N)=O [NPL001, (pE)LQPFPQPELPYPQPQ-NH2] ([pGlu]LQPFPQPELPYPQPQ-NH2) | above the limit of quantification |  | > 50
CC[C@H](C)[C@H](NC(=O)[C@@H]1CCCN1C(=O)[C@H](CCC(N)=O)NC(=O)[C@H](CCC(=O)O)NC(=O)[C@@H]1CCCN1C(=O)[C@@H]1CCC(=O)N1)C(=O)N1CCC[C@H]1C(=O)N[C@@H](CCC(=O)O)C(=O)N[C@@H](CCC(N)=O)C(=O)N1CCC[C@H]1C(=O)N[C@@H](CCC(N)=O)C(=O)N1CCC[C@H]1C(=O)N[C@@H](Cc1ccc(O)cc1)C(=O)N1CCC[C@H]1C(=O)N[C@@H](CCC(N)=O)C(=O)N[C@@H](CCC(N)=O)C(N)=O [NPL003] | above the limit of quantification | > 50 | 

Reference: patent US20200397852A1, “DOSING REGIMENS FOR CELIAC DISEASE” (ImmusanT, Inc., priority 2017, published 2020)
